Data: patent US12692254B2, “Benzimidazole inhibitors of PAD enzymes” (BRISTOL-MYERS SQUIBB COMPANY, priority 2018, dated 2026)

The molecules below were run against human PAD4 (hPAD4) (Homo sapiens, UniProt Q9UM07) (assay: RFMS human PAD4 functional assay (rapid-fire mass spectrum)). Conditions: 5 nM hPAD4 enzyme, 250 μM BAEE, 50 μM Calcium; 30 min preincubation, 90 min reaction at 37° C.
Type: biochemical
Outline: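 PAD4 (10 nM) preincubated 30 min with compound (top final 50 μM), then BAEE substrate added in pH 7.5 HEPES buffer with DTT, 50 μM calcium, TPEN; 90 min at 37° C. After TCA quench, citrulline derivatized with phenyl glyoxal (4 mM final, 30 min, 37° C) and quantified by RapidFire MS against internal standard.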

Sequence of human PAD4 (hPAD4) (Q9UM07 whole entry): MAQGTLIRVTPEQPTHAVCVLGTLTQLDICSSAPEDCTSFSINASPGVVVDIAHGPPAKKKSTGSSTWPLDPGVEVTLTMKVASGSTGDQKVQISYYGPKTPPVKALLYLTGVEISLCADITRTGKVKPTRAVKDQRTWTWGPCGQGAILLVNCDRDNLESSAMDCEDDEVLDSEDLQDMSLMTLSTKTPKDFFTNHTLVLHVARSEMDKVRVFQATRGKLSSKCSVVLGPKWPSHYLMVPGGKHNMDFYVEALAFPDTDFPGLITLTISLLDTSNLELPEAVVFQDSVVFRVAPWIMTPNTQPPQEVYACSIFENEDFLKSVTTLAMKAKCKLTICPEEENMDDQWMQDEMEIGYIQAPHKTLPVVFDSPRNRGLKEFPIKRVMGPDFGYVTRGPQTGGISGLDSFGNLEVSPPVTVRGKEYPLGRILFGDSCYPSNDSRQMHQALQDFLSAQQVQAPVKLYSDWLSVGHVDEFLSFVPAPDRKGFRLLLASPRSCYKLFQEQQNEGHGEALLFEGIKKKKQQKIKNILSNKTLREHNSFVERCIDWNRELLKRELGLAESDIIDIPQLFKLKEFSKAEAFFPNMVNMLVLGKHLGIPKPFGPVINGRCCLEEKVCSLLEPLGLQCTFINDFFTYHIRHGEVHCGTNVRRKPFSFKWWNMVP

Going from Cc1cc(C(=O)N2CC3CCC2[C@@H]3N)cc2nc(-c3cc4cccnc4n3CC3CC3)n(CC3CN(C(=O)c4ccccc4)C3)c12 (stereo partly drawn) [Example 458, (7R)-2-{1-[(1-benozylazetidin-3-yl)methyl]-2-[1-(cyclopropylmethyl)-1H-pyrrolo[2,3-b]pyridin-2-yl]-7-methyl-1H-1,3-benzodiazole-5-carbonyl}-2-azabicyclo[2.2.1]heptan-7-amine] to COc1cc(C(=O)N2CC3CCC2[C@@H]3N)cc2nc(-c3cc4cccnc4n3CC3CC3)n(CC3CN(C(=O)c4c(F)cccc4F)C3)c12 (stereo partly drawn) [Example 431, (7R)-2-{2-[1-(cyclopropylmethyl)-1H-pyrrolo[2,3-b]pyridin-2-yl]-1-{[1-(2,6-difluorobenzoyl)azetidin-3-yl]methyl}-7-methoxy-1H-1,3-benzodiazole-5-carbonyl}-2-azabicyclo[2.2.1]heptan-7-amine], the IC50 falls from 0.065 µM to 0.03 µM (2.2-fold).

First: COc1nccnc1N1CC(Cn2c(-c3cc4cccnc4n3CC3CC3)nc3cc(C(=O)N4C[C@H]5CC[C@@H]4[C@@H]5N)cc(OC)c32)C1 [Example 43, (1R,4R,7R)-2-{2-[1-(cyclopropylmethyl)-1H-pyrrolo[2,3-b]pyridin-2-yl]-7-methoxy-1-{[1-(3-methoxypyrazin-2-yl)azetidin-3-yl]methyl}-1H-1,3-benzodiazole-5-carbonyl}-2-azabicyclo[2.2.1]heptan-7-amine]
Second: COc1cc(C(=O)N2C[C@H]3CC[C@@H]2[C@@H]3N)cc2nc(-c3cc4cccnc4n3CC3CC3)n(CC3CN(c4ccncc4)C3)c12 [Example 57, (1R,4R,7R)-2-{2-[1-(cyclopropylmethyl)-1H-pyrrolo[2,3-b]pyridin-2-yl]-7-methoxy-1-{[1-(pyridin-4-yl)azetidin-3-yl]methyl}-1H-1,3-benzodiazole-5-carbonyl}-2-azabicyclo[2.2.1]heptan-7-amine]
The IC50 of the first is 1.6-fold lower: 0.103 µM for the first, 0.168 µM for the second. The first is the more potent here.

COc1cc(C(=O)N2CC3CCC2[C@@H]3N)cc2nc(-c3cc4cccnc4n3CC3CC3)n(Cc3cnn(-c4cncc(Cl)c4)c3)c12 (stereo partly drawn) [Example 383, (7R)-2-(1-{[1-(5-chloropyridin-3-yl)-1H-pyrazol-4-yl]methyl}-2-[1-(cyclopropylmethyl)-1H-pyrrolo[2,3-b]pyridin-2-yl]-7-methoxy-1H-1,3-benzodiazole-5-carbonyl)-2-azabicyclo[2.2.1]heptan-7-amine] and COc1cc(C(=O)N2CC3CCC2[C@@H]3N)cc2nc(-c3cc4cccnc4n3CC3CC3)n(Cc3cn[nH]c3)c12 (stereo partly drawn) [Example 488, (7R)-2-{2-[1-(cyclopropylmethyl)-1H-pyrrolo[2,3-b]pyridin-2-yl]-7-methoxy-1-[(1H-pyrazol-4-yl)methyl]-1H-1,3-benzodiazole-5-carbonyl}-2-azabicyclo[2.2.1]heptan-7-amine] are within 1.5-fold of each other in IC50: 0.041 µM for the first, 0.055 µM for the second.

Going from COc1cc(C(=O)N2C[C@H](N)C[C@@H](F)C2)cc2nc(-c3cc4ccccc4n3CC3CC3)n(Cc3cn[nH]c3)c12 [Example 266, (3R,5R)-1-{2-[1-(cyclopropylmethyl)-1H-indol-2-yl]-7-methoxy-1-[(1H-pyrazol-4-yl)methyl]-1H-1,3-benzodiazole-5-carbonyl}-5-fluoropiperidin-3-amine] to COc1cc(C(=O)N2CC3CCC2[C@@H]3N)cc2nc(-c3cc4ccccc4n3CC3CC3)n(Cc3cn(C)nn3)c12 (stereo partly drawn) [Example 503, (7R)-2-{2-[1-(cyclopropylmethyl)-1H-indol-2-yl]-7-methoxy-1-[(1-methyl-1H-1,2,3-triazol-4-yl)methyl]-1H-1,3-benzodiazole-5-carbonyl}-2-azabicyclo[2.2.1]heptan-7-amine], the IC50 rises from 0.082 µM to 0.149 µM (1.8-fold).

First: COc1cc(C(=O)N2C[C@H]3CC[C@@H]2[C@@H]3N)cc2nc(-c3cc4ccccc4n3CC3CC3)n(CCCN3CCCC3=O)c12 [Example 254, 1-(3-{5-[(1R,4R,7R)-7-amino-2-azabicyclo[2.2.1]heptane-2-carbonyl]-2-[1-(cyclopropylmethyl)-1H-indol-2-yl]-7-methoxy-1H-1,3-benzodiazol-1-yl}propyl)pyrrolidin-2-one]
Second: COc1cc(C(=O)N2CC3CCC2[C@@H]3N)cc2nc(-c3cc4ccccc4n3CC3CC3)n(CCc3cnn(C)c3)c12 (stereo partly drawn) [Example 511, (7R)-2-{2-[1-(cyclopropylmethyl)-1H-indol-2-yl]-7-methoxy-1-[2-(1-methyl-1H-pyrazol-4-yl)ethyl]-1H-l,3-benzodiazole-5-carbonyl}-2-azabicyclo[2.2.1]heptan-7-amine]
The IC50 of the first is 11-fold lower: 0.031 µM for the first, 0.338 µM for the second.

Going from COc1nccc(N2CCC(Cn3c(-c4cc5cccnc5n4CC4CC4)nc4cc(C(=O)N5CC6CCC5[C@@H]6N)cc(OC)c43)CC2)n1 (stereo partly drawn) [Example 222, (1R.,4R,7R)-2-{2-[1-(cyclopropylmethyl)-1H-pyrrolo[2,3-b]pyridin-2-yl]-7-methoxy-1-{[1-(2-methoxypyrimidin-4-yl)piperidin-4-yl]methyl}-1H-1,3-benzodiazole-5-carbonyl}-2-azabicyclo[2.2.1]heptan-7-amine] to COc1cc(C(=O)N2CC3CCC2[C@@H]3N)cc2nc(-c3cc4cccnc4n3CC3CC3)n(CC3CCN(c4ncccn4)C3)c12 (stereo in doubt) [Example 234, (1R,4R,7R)-2-{2-[1-(cyclopropylmethyl)-1H-pyrrolo[2,3-b]pyridin-2-yl]-7-methoxy-1-{[(3R)-1-(pyrimidin-2-yl)pyrrolidin-3-yl]methyl}-1H-1,3-benzodiazole-5-carbonyl}-2-azabicyclo[2.2.1]heptan-7-amine], the IC50 rises from 0.166 µM to 0.332 µM (2-fold). The first is the more potent here.

Compared with COC(=O)N[C@H]1C[C@H](n2c(-c3cc4cccnc4n3CC3CC3)nc3cc(C(=O)N4CC5CCC4[C@@H]5N)cc(OC)c32)C1 (stereo partly drawn) [Example 296, methyl N-[(1r,3r)-3-{5-[(1R,4R,7R)-7-amino-2-azabicyclo[2.2.1]heptane-2-carbonyl]-2-[1-(cyclopropylmethyl)-1H-pyrrolo[2,3-b]pyridin-2-yl]-7-methoxy-1H-1,3-benzodiazol-1-yl}cyclobutyl]carbamate], COc1cc(C(=O)N2C[C@H]3CC[C@@H]2[C@@H]3N)cc2nc(-c3cc4cccnc4n3CC3CC3)n(CCNS(C)(=O)=O)c12 [Example 286, N-(2-{5-[(1R,4R,7R)-7-amino-2-azabicyclo[2.2.1]heptane-2-carbonyl]-2-[1-(cyclopropylmethyl)-1H-pyrrolo[2,3-b]pyridin-2-yl]-7-methoxy-1H-1,3-benzodiazol-1-yl}ethyl)methanesulfonamide] is 2-fold higher in IC50: 0.582 µM for the first, 1.19 µM for the second. The first is the more potent here.

Going from COc1cc(C(=O)N2CC3CCC2[C@@H]3N)cc2nc(-c3cc4ccccc4n3CC3CC3)n(Cc3cn(C)nc3C)c12 (stereo partly drawn) [Example 492, (7R)-2-{2-[1-(cyclopropylmethyl)-1H-indol-2-yl]-1-[(1,3-dimethyl-1H-pyrazol-4-yl)methyl]-7-methoxy-1H-1,3-benzodiazole-5-carbonyl}-2-azabicyclo[2.2.1]heptan-7-amine] to COc1cc(C(=O)N2CC3CCC2[C@@H]3N)cc2nc(-c3cc4ccccc4n3CC3CC3)n(Cc3cnn(-c4ccccn4)c3)c12 (stereo partly drawn) [Example 348, (7R)-2-{2-[1-(cyclopropylmethyl)-1H-indol-2-yl]-7-methoxy-1-{[1-(pyridin-2-yl)-1H-pyrazol-4-yl]methyl}-1H-1,3-benzodiazoie-5-carbonyl}-2-azabicyclo[2.2.1]heptan-7-amine], the IC50 falls from 0.078 µM to 0.014 µM (5.6-fold). The second is the more potent here.

Going from COc1cc(C(=O)N2C[C@H]3CC[C@@H]2[C@@H]3N)cc2nc(-c3cc4cccnc4n3CC3CC3)n(C3CCN(C(=O)c4ccnc(C#N)c4)CC3)c12 [Example 240, 4-(4-{5-[(1R,4R,7R)-7-amino-2-azabicyclo[2.2.1]heptane-2-carbonyl]-2-[1-(cyclopropylmethyl)-1H-pyrrolo[2,3-b]pyridin-2-yl]-7-methoxy-1H-1,3-benzodiazol-1-yl}piperidine-1-carbonyl)pyridine-2-carbonitrile] to COc1cc(C(=O)N2C[C@H]3CC[C@@H]2[C@@H]3N)cc2nc(-c3cc4cccnc4n3CC3CC3)n(CC3CCNCC3)c12 [Example 305, (1R,4R,7R)-2-{2-[1-(cyclopropylmethyl)-1H-pyrrolo[2,3-b]pyridin-2-yl]-7-methoxy-1-[(piperidin-4-yl)methyl]-1H-1,3-benzodiazole-5-carbonyl)-2-azabicyclo[2.2.1]heptan-7-amine], the IC50 falls from 1.44 µM to 0.303 µM (4.8-fold).

First: N#Cc1ccc(C(=O)N2CC(Cn3c(-c4cc5ccccc5n4CC4CC4)nc4cc(C(=O)N5C[C@H]6CC[C@@H]5[C@@H]6N)cc(F)c43)C2)cc1 [Example 92, 4-(3-((5-((1R,4R,7R)-7-amino-2-azabicyclo[2.2.1]heptane-2-carbonyl)-2-(1-(cyclopropylmethyl)-1H-indol-2-yl)-7-fluoro-1H-benzo[d]imidazol-1-yl)methyl)azetidine-1-carbonyl)benzonitrile]
Second: COc1cc(C(=O)N2CC3CCC2[C@@H]3N)cc2nc(-c3cc4ccc(C(C)O)cc4n3CC3CC3)n(CC3CN(C(=O)c4ccc(C#N)cc4)C3)c12 (stereo partly drawn) [Example 523, 4-[3-({5-[(7R)-7-amino-2-azabicyclo[2.2.1]heptane-2-carbonyl]-2-[1-(cyclopropylmethyl)-6-(1-hydroxyethyl)-1H-indol-2-yl]-7-methoxy-1H-1,3-benzodiazol-1-yl}methyl)azetidine-1-carbonyl]benzonitrile]
The IC50 of the first is 2.8-fold lower: 0.012 µM for the first, 0.034 µM for the second.

Compared with COc1cc(C(=O)N2C[C@H]3CC[C@@H]2[C@@H]3N)cc2nc(-c3cc4cccnc4n3CC3CC3)n(CC3CN(c4cc(C#N)cnc4C#N)C3)c12 [Example 12, 3-[3-({5-[(1R,4R,7R)-7-amino-2-azabicyclo[2.2.1]heptane-2-carbonyl]-2-[1-(cyclopropylmethyl)-1H-pyrrolo[2,3-b]pyridin-2-yl]-7-methoxy-1H-1,3-benzodiazol-1-yl}methyl)azetidin-1-yl]pyridine-2,5-dicarbonitrile], COc1cc(C(=O)N2CC3CCC2[C@@H]3N)cc2nc(-c3cc4ccc(C(C)O)cc4n3CC3CC3)n(CC3CN(C(=O)c4ccccc4)C3)c12 (stereo partly drawn) [Example 521, l-(2-{5-[(7R)-7-amino-2-azabicyclo[2.2.1]heptane-2-carbonyl]-1-[(1-benzoylazetidin-3-yl)methyl]-7-methoxy-1H-1,3-benzodiazol-2-yl}-1-(cyclopropylmethyl)-1H-indol-6-yl)ethan-1-ol] is 2.3-fold higher in IC50: 0.038 µM for the first, 0.086 µM for the second. The first is the more potent here.
